Measured values from the supplement of paper PMC10307832.

Tests used:
Test in all cases: relative viability (nuclei count vs DMSO), 5 days (fraction); higher = more cells survive
[1] = compound: CC(C)(C)c1cc(NC(=O)Nc2ccc(-c3cn4c(n3)sc3cc(OCCN5CCOCC5)ccc34)cc2)no1 [Quizartinib] + Cc1nc(NC(=O)N2CCC[C@H]2C(N)=O)sc1-c1ccnc(C(C)(C)C(F)(F)F)c1 [Alpelisib] (partner 2 µM)
Summary of the method: (§1)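 Lung cancer cell lines in 1536-well plates were dosed by pin tool the day after seeding, either with one drug alone or with a fixed anchor-drug dose plus five library-drug doses (not always all listed) in √10 steps. After 5 days, cells were fixed and their nuclei stained in one step (final 0.05% Triton X-100, 1% formaldehyde, 1 ug/ml Hoechst), then counted on 4× images. Relative viability is the nuclei count in treated wells divided by that in vehicle wells. Values are medians of duplicate plates.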

[2] = compound: COCC[n+]1c2c(n(Cc3cnccn3)c1C)C(=O)c1ccccc1C2=O [YM155] + C[C@]1(O)C[C@@H](c2nc(-c3ccc4ccc(-c5ccccc5)nc4c3)c3c(N)nccn32)C1 [Linsitinib] (partner 1 µM)
Summary of the method: as §1

[3] = compound: CC(C)(C)c1cc(NC(=O)Nc2ccc(-c3cn4c(n3)sc3cc(OCCN5CCOCC5)ccc34)cc2)no1 [Quizartinib] + O=C(c1cc(Cc2n[nH]c(=O)c3ccccc23)ccc1F)N1CCN(C(=O)C2CC2)CC1 [Olaparib] (partner 8 µM)
Summary of the method: as §1

[4] = compound: COCC[n+]1c2c(n(Cc3cnccn3)c1C)C(=O)c1ccccc1C2=O [YM155] + CC(C)C[C@H](NC(=O)[C@H](Cc1ccccc1)NC(=O)c1cnccn1)B(O)O [Bortezomib] (partner 0.002 µM)
Summary of the method: as §1

Cell Line | relative viability ([1]; first compound 0.001 µM) | relative viability ([1]; first compound 0.003162 µM) | relative viability ([1]; first compound 0.01 µM) | relative viability ([1]; first compound 0.03162 µM) | relative viability ([1]; first compound 0.1 µM) | relative viability ([2]; first compound 0.002 µM) | relative viability ([2]; first compound 0.006325 µM) | relative viability ([2]; first compound 0.02 µM) | relative viability ([2]; first compound 0.06325 µM) | relative viability ([3]; first compound 0.001 µM) | relative viability ([3]; first compound 0.003162 µM) | relative viability ([3]; first compound 0.01 µM) | relative viability ([3]; first compound 0.03162 µM) | relative viability ([3]; first compound 0.1 µM) | relative viability ([4]; first compound 0.002 µM) | relative viability ([4]; first compound 0.006325 µM) | relative viability ([4]; first compound 0.02 µM) | relative viability ([4]; first compound 0.06325 µM)
SK-LU-1 | 0.96 | 0.876 | 1.17 | 0.982 | 0.81 | 1.08 | 1.04 | 1.21 | 0.708 | 0.462 | 0.469 | 0.458 | 0.467 | 0.432 | 1.05 | 1.04 | 1.54 | 1.09
SW 1573 | 0.779 | 0.728 | 0.836 | 0.686 | 0.793 | 0.88 | 0.939 | 0.769 | 0.686 | 0.292 | 0.538 | 0.572 | – | 0.581 | 0.95 | 0.946 | 0.954 | 0.568
UMC-11 | 0.924 | 0.948 | 1.13 | 0.947 | 1.1 | 0.993 | 1.05 | 1.02 | 1.03 | 0.365 | 0.349 | 0.464 | 0.315 | 0.471 | 0.692 | 0.557 | 0.719 | 0.667
